Data as given in patent US11986540B2, “Compositions including pafolacianine for the identification of malignant lesions” (ON TARGET LABORATORIES, LLC., priority 2022, dated 2024).
Read-outs that look alike come from different tables or passages of the source.

Legend:
[1] = test system: FR-positive KB cell tumor xenografts; assay: Whole body imaging and tissue distribution, FR-positive KB tumor xenografts; assay type: in vivo, mice
Description: Whole body imaging and tissue distribution of pafolacianine and OTL0039 was performed in female nu/nu mice bearing FR-positive KB cell tumor xenografts. […] This observation was consistent with the lower binding affinity of the D-isomer for FR compared with the L-isomer. Tumor fluorescence was brighter in mice receiving pafolacianine compared with other folate-conjugated near infrared dyes such as LS288, IR800 and ZW800.
The optimal dose range for pafolacianine with respect to tumor-to-background ratio in FR-positive tumor-bearing mice was 1 to 30 nmol/mouse, with lower fluorescence intensity observed in tumors at a lower dose (0.3 nmol) and higher fluorescence intensity observed in other tissues at doses above 30 nmol. In a second experiment, pafolacianine whole body imaging and tissue distribution was examined again; however, this experiment was performed in female nu/nu mice bearing FR-negative A549 cell tumor xenografts.

[2] = Single IV dose toxicokinetics in rats; assay type: in vivo; details: Study Day 0; for AUC(0-t) / C0: rat, in vivo
Description: Following a single IV administration of pafolacianine to male and female rats, systemic exposure (AUClast) to pafolacianine appeared similar between males and females at the 46.3 mg/kg dose levels (Table 2). There was a slight trend for higher AUClast values in females versus males at the two lower dose levels; however, due to sparse sampling of blood, the significance of this slight trend could not be evaluated. Values for AUClast were calculated, but the time associated with the last measurable concentration was variable (Tlast; 5 min to 24 hr), which confounded the ability to assess dose proportionality. Terminal data were generally sparse and/or the terminal phase was not sufficiently defined (FIG. 4). Thus, parameters dependent on accurate determination of the terminal phase (AUCinf, T1/2, CL, Vz) were not reported.

[3] = Partitioning into red blood cells; assay type: in vitro ADME
[4] = Safety in three open label clinical studies; assay type: in vivo, human
Description: The safety of the disclosed compositions were evaluated in three open label clinical studies, two studies (N=150 and N=44) in patients with ovarian cancer and one study (N=100) in patients with cancer in the lung. A total of 294 patients received 0.025 mg/kg of the disclosed compositions via intravenous administration. The mean age of patients was 63.5 years; 51% were 65 years of age or older; 89% of patients were female; and 84% of patients were white.

[5] = Repeat once-weekly IV dose toxicokinetics in rats; assay type: in vivo; details: for increase in AUCinf: after 14.9-fold increase in dose; for half-life / AUC(0-inf) / C0 / clearance / Vd: rat, in vivo; for Vd: read-out: Vss
Description: […] On both Day 1 and Day 13, increases in pafolacianine exposure (AUCinf) were trending slightly greater than dose proportional, noting that sparse blood sampling was employed so the variability in the AUCs could not be assessed. […] CL was slow (relative to hepatic blood flow) and Vss was moderate. Mean T1/2 ranged from approximately 6 to 11 hours.

[6] = female rats, 3.1 mg/kg single IV
[7] = female rats, 30.8 mg/kg single IV
[8] = female rats, 46.3 mg/kg single IV
[9] = male rats, 30.8 mg/kg single IV
[10] = male rats, 46.3 mg/kg single IV
[11] = female, iv, 3.1 mg/kg, rats F, 3.1 mg/kg once-weekly IV, Day 0
[12] = female, iv, 3.1 mg/kg, rats F, 3.1 mg/kg once-weekly IV, Day 13
[13] = female, iv, 30.8 mg/kg, rats F, 30.8 mg/kg once-weekly IV, Day 0
[14] = female, iv, 30.8 mg/kg, rats F, 30.8 mg/kg once-weekly IV, Day 13
[15] = female, iv, 46.3 mg/kg, rats F, 46.3 mg/kg once-weekly IV, Day 0
[16] = female, iv, 46.3 mg/kg, rats F, 46.3 mg/kg once-weekly IV, Day 13
[17] = male, iv, 3.1 mg/kg, rats M, 3.1 mg/kg once-weekly IV, Day 0
[18] = male, iv, 3.1 mg/kg, rats M, 3.1 mg/kg once-weekly IV, Day 13
[19] = male, iv, 30.8 mg/kg, rats M, 30.8 mg/kg once-weekly IV, Day 0
[20] = male, iv, 30.8 mg/kg, rats M, 30.8 mg/kg once-weekly IV, Day 13
[21] = male, iv, 46.3 mg/kg, rats M, 46.3 mg/kg once-weekly IV, Day 0
[22] = male, iv, 46.3 mg/kg, rats M, 46.3 mg/kg once-weekly IV, Day 13
[23] = rats F, 3.1 mg/kg once-weekly IV, Day 13
[24] = rats F, 30.8 mg/kg once-weekly IV, Day 13
[25] = rats F, 46.3 mg/kg once-weekly IV, Day 13
[26] = rats M, 3.1 mg/kg once-weekly IV, Day 13
[27] = rats M, 30.8 mg/kg once-weekly IV, Day 13
[28] = rats M, 46.3 mg/kg once-weekly IV, Day 13

Q: What does the source list for `CC1(C)C(=CC=C2CCCC(C=CC3=[N+](CCCCS(=O)(=O)[O-])c4ccc(S(=O)(=O)O)cc4C3(C)C)=C2Oc2ccc(CC(NC(=O)c3ccc(NCc4cnc5nc(N)[nH]c(=O)c5n4)cc3)C(=O)O)cc2)N(CCCCS(=O)(=O)O)c2ccc(S(=O)(=O)O)cc21` (centres unmarked) [pafolacianine]?
A: fluorescence in all other normal tissues ([1]; 2.5 hours after IV 10 nmol): little or no fluorescence signal; fluorescence in kidneys ([1]; 2.5 hours after IV 10 nmol): fluorescence signal also observed in the kidneys; fluorescence in tumors ([1]; 2.5 hours after IV 10 nmol): fluorescence primarily in the tumors; tumor-to-normal tissue fluorescence ratios ([1]; 2.5 hours after IV 10 nmol): excellent; tumor fluorescence compared with other folate-conjugated near infrared dyes (LS288, IR800, ZW800) ([1]; mouse, in vivo): brighter; DN AUClast [2, 6]: 0.816 (μg · h/mL)/(mg/kg); DN AUClast [2, 7]: 5.39 (μg · h/mL)/(mg/kg); DN AUClast [2, 8]: 5.51 (μg · h/mL)/(mg/kg); DN AUClast ([2]; male rats, 3.1 mg/kg single IV): 0.184 (μg · h/mL)/(mg/kg); DN AUClast [2, 9]: 3.86 (μg · h/mL)/(mg/kg); DN AUClast [2, 10]: 6.18 (μg · h/mL)/(mg/kg); AUC(0-t) [2, 6]: 2.53 µg·h/mL; C0 [2, 6]: 16.2 µg/mL; AUC(0-t) [2, 7]: 166 µg·h/mL; C0 [2, 7]: 178 µg/mL; AUC(0-t) [2, 8]: 255 µg·h/mL; C0 [2, 8]: 231 µg/mL; AUC(0-t) ([2]; male rats, 3.1 mg/kg single IV): 0.57 µg·h/mL; C0 ([2]; male rats, 3.1 mg/kg single IV): 6.87 µg/mL; AUC(0-t) [2, 9]: 119 µg·h/mL; C0 [2, 9]: 65.7 µg/mL; AUC(0-t) [2, 10]: 286 µg·h/mL; C0 [2, 10]: 174 µg/mL; partitioning into red blood cells [3]: No notable partitioning; Adverse reaction: abdominal pain ([4]; 294 patients, 0.025 mg/kg IV): 2.7%; Adverse reaction: chest discomfort ([4]; 294 patients, 0.025 mg/kg IV): 1%; Adverse reaction: dyspepsia ([4]; 294 patients, 0.025 mg/kg IV): 1%; Adverse reaction: flushing ([4]; 294 patients, 0.025 mg/kg IV): 1.7%; Adverse reaction: hypersensitivity ([4]; 294 patients, 0.025 mg/kg IV): 1%; Adverse reaction: nausea ([4]; 294 patients, 0.025 mg/kg IV): 15%; Adverse reaction: pruritus ([4]; 294 patients, 0.025 mg/kg IV): 1%; Adverse reaction: vomiting ([4]; 294 patients, 0.025 mg/kg IV): 5.8%; patients with adverse reactions during the administration ([4]; 294 patients, 0.025 mg/kg IV): 2.4%; time of occurrence of reactions after start of infusion ([4]; typically): ≤ 15 min; increase in AUCinf ([5]; Day 1, genders combined): ~18 fold; increase in AUCinf ([5]; Day 13, genders combined): ~20 fold; half-life ([5]; both sexes, intravenous, rats, all doses and days, read-out: Mean T1/2 range): 360 to 660 min; AUC(0-inf) [5, 11]: 19.1 µg·h/mL; C0 [5, 11]: 21.2 µg/mL; clearance [5, 11]: 2.72 mL/min/kg; half-life ([5]; female, iv, 3.1 mg/kg, rats F, 3.1 mg/kg once-weekly IV, Day 0, read-out: T1/2 (converted)): 431 min; Vd [5, 11]: 1.08 L/kg; AUC(0-inf) [5, 12]: 16.6 µg·h/mL; C0 [5, 12]: 4.76 µg/mL; clearance [5, 12]: 3.1 mL/min/kg; half-life ([5]; female, iv, 3.1 mg/kg, rats F, 3.1 mg/kg once-weekly IV, Day 13, read-out: T1/2 (converted)): 506 min; Vd [5, 12]: 1.7 L/kg; AUC(0-inf) [5, 13]: 237 µg·h/mL; C0 [5, 13]: 194 µg/mL; clearance [5, 13]: 2.17 mL/min/kg; half-life ([5]; female, iv, 30.8 mg/kg, rats F, 30.8 mg/kg once-weekly IV, Day 0, read-out: T1/2 (converted)): 521 min; Vd [5, 13]: 1.14 L/kg; AUC(0-inf) [5, 14]: 291 µg·h/mL; C0 [5, 14]: 105 µg/mL; clearance [5, 14]: 1.77 mL/min/kg; half-life ([5]; female, iv, 30.8 mg/kg, rats F, 30.8 mg/kg once-weekly IV, Day 13, read-out: T1/2 (converted)): 364 min; Vd [5, 14]: 0.773 L/kg; AUC(0-inf) [5, 15]: 361 µg·h/mL; C0 [5, 15]: 245 µg/mL; clearance [5, 15]: 2.13 mL/min/kg; half-life ([5]; female, iv, 46.3 mg/kg, rats F, 46.3 mg/kg once-weekly IV, Day 0, read-out: T1/2 (converted)): 586 min; Vd [5, 15]: 1.29 L/kg; AUC(0-inf) [5, 16]: 387 µg·h/mL; C0 [5, 16]: 240 µg/mL; clearance [5, 16]: 2 mL/min/kg; half-life ([5]; female, iv, 46.3 mg/kg, rats F, 46.3 mg/kg once-weekly IV, Day 13, read-out: T1/2 (converted)): 346 min; Vd [5, 16]: 0.806 L/kg; AUC(0-inf) [5, 17]: 19.2 µg·h/mL; C0 [5, 17]: 27.7 µg/mL; clearance [5, 17]: 2.68 mL/min/kg; half-life ([5]; male, iv, 3.1 mg/kg, rats M, 3.1 mg/kg once-weekly IV, Day 0, read-out: T1/2 (converted)): 495 min; Vd [5, 17]: 1.24 L/kg; AUC(0-inf) [5, 18]: 21 µg·h/mL; C0 [5, 18]: 24 µg/mL; clearance [5, 18]: 2.47 mL/min/kg; half-life ([5]; male, iv, 3.1 mg/kg, rats M, 3.1 mg/kg once-weekly IV, Day 13, read-out: T1/2 (converted)): 580 min; Vd [5, 18]: 1.5 L/kg; AUC(0-inf) [5, 19]: 235 µg·h/mL; C0 [5, 19]: 165 µg/mL; clearance [5, 19]: 2.18 mL/min/kg; half-life ([5]; male, iv, 30.8 mg/kg, rats M, 30.8 mg/kg once-weekly IV, Day 0, read-out: T1/2 (converted)): 654 min; Vd [5, 19]: 1.53 L/kg; AUC(0-inf) [5, 20]: 329 µg·h/mL; C0 [5, 20]: 202 µg/mL; clearance [5, 20]: 1.56 mL/min/kg; half-life ([5]; male, iv, 30.8 mg/kg, rats M, 30.8 mg/kg once-weekly IV, Day 13, read-out: T1/2 (converted)): 624 min; Vd [5, 20]: 1.15 L/kg; AUC(0-inf) [5, 21]: 342 µg·h/mL; C0 [5, 21]: 263 µg/mL; clearance [5, 21]: 2.27 mL/min/kg; half-life ([5]; male, iv, 46.3 mg/kg, rats M, 46.3 mg/kg once-weekly IV, Day 0, read-out: T1/2 (converted)): 479 min; Vd [5, 21]: 1.41 L/kg; AUC(0-inf) [5, 22]: 380 µg·h/mL; C0 [5, 22]: 269 µg/mL; clearance [5, 22]: 2.03 mL/min/kg; half-life ([5]; male, iv, 46.3 mg/kg, rats M, 46.3 mg/kg once-weekly IV, Day 13, read-out: T1/2 (converted)): 441 min; Vd [5, 22]: 1.12 L/kg; DN AUCinf ([5]; rats F, 3.1 mg/kg once-weekly IV, Day 0): 6.15 (μg · h/mL)/(mg/kg); Accumulation Ratio [5, 23]: 0.874; DN AUCinf [5, 23]: 5.37 (μg · h/mL)/(mg/kg); DN AUCinf ([5]; rats F, 30.8 mg/kg once-weekly IV, Day 0): 7.70 (μg · h/mL)/(mg/kg); Accumulation Ratio [5, 24]: 1.23; DN AUCinf [5, 24]: 9.45 (μg · h/mL)/(mg/kg); DN AUCinf ([5]; rats F, 46.3 mg/kg once-weekly IV, Day 0): 7.80 (μg · h/mL)/(mg/kg); Accumulation Ratio [5, 25]: 1.07; DN AUCinf [5, 25]: 8.35 (μg · h/mL)/(mg/kg); DN AUCinf ([5]; rats M, 3.1 mg/kg once-weekly IV, Day 0): 6.19 (μg · h/mL)/(mg/kg); Accumulation Ratio [5, 26]: 1.09; DN AUCinf [5, 26]: 6.76 (μg · h/mL)/(mg/kg); DN AUCinf ([5]; rats M, 30.8 mg/kg once-weekly IV, Day 0): 7.63 (μg · h/mL)/(mg/kg); Accumulation Ratio [5, 27]: 1.40; DN AUCinf [5, 27]: 10.7 (μg · h/mL)/(mg/kg); DN AUCinf ([5]; rats M, 46.3 mg/kg once-weekly IV, Day 0): 7.39 (μg · h/mL)/(mg/kg); Accumulation Ratio [5, 28]: 1.11; DN AUCinf [5, 28]: 8.20 (μg · h/mL)/(mg/kg); accumulation or changes in TK parameters after repeated dosing ([5]; rats, once-weekly dosing for 3 weeks): no accumulation or changes in TK parameters were evident
